Experimental data published in patent publication US20170260519A1, “METHOD OF CULTIVATING MICROORGANISMS HAVING NITRILE HYDRATASE ACTIVITY” (priority 2014, published 2017).

Columns and labels:
[1] = tested on: R. rhodochrous “CIBA” (NCIMB 41164); assay: Relative nitrile hydratase activity after cultivation of R. rhodochrous "CIBA" with different carbon sources; format: cell-based, Rhodococcus rhodochrous; conditions: 10 g/l, 64 h
Protocol: In context with the present invention, activity of an nitrile hydratase in the sense of the present invention can be determined as follows: First reacting 100 μl of a cell suspension, cell lysate, dissolved enzyme powder or any other preparation containing the supposed nitrile hydratase with 875 μl of an 50 mM potassium phosphate buffer and 25 μl of acrylonitrile at 25° C. on an eppendorf tube shaker at 1,000 rpm for 10 minutes. After 10 minutes of reaction time, samples are drawn and immediately quenched by adding the same volume of 1.4% hydrochloric acid. After mixing of the sample, cells are removed by centrifugation for 1 minute at 10,000 rpm and the amount of acrylamide formed is determined by analyzing the clear supernatant by HPLC. The concentration of acrylamide shall be between 0.25 and 1.25 mmol/l—if necessary, the sample has to be diluted accordingly and the conversion has to be repeated. The enzyme activity is deduced from the concentration of acrylamide by dividing the acrylamide concentration derived from HPLC analysis by the reaction time, which has been 10 minutes and by multiplying this value with the dilution factor between HPLC sample and original sample. […]) and/or to the nucleotide sequence of SEQ ID NO: 3 (beta-subunit of nitrile hydratase of R. rhodochrous: […]), provided that the polypeptide encoded by said polynucleotide is capable of catalyzing hydration of acrylonitrile to acrylamide (i.e. has nitrile hydratase activity) as described and exemplified herein. […] VIV) and/or to the amino acid sequence of SEQ ID NO: 4 (beta-subunit of nitrile hydratase of R. rhodochrous: […]), provided that said polypeptide is capable of catalyzing hydration of acrylonitrile to acrylamide as described and exemplified herein.
Different sugar/organic acid ratios were evaluated for different strains of Rhodococcus (R. rhodochrous “CIBA” (NCIMB 41164) and R. rhodochrous “J1” (FERM BP-1478)), in a microfermentation system.
The basic cultivation medium contained yeast extract (Biospringer) (1.25 g/l), KH2PO4 (10 g/l), K2HPO4 (10 g/l), (NH4)2SO4 (1 g/l), MgSO4*7H2O (0.375 g/l), CaCl2*2H2O (25 mg/l), Trace element solution (2.5 g/l) (see below), Co(NO3)2 (31.2 mg/l), anti-foam P2000 (BASF) (62.5 mg/l), urea (7 g/l), and ammonium glutamate (2.5 g/l) in H2O.
Trace Element Solution: Citric acid mono hydrate (40 g/l), ZnSO4*7H2O (11 g/l), (NH4)2Fe(SO4)2*6H2O (8.5 g/l), MnSO4*H2O (3 g/l), and CuSO4*5H2O (0.8 g/l) in H2O.
(§1) The medium was then supplemented with 10 g/l of carbon source (saccharide, organic acid or mixture of both as indicated in the Tables below). pH was adjusted to 6.6 using H3PO4 or NaOH. The medium was inoculated directly from cryo stocks to OD 0.05 (measured at 600 nm). Cultivation was carried out at 37° C. for 64 h at 1,100 rpm in a BioLector micro fermentation system (M2P Labs, Baesweiler, Germany) using 48-well flower plates with a working volume of 1.5 ml. After cultivation, samples were drawn, quenched with hydrochloric acid and nitrile hydratase activity was determined as described in Example 2.
Nitrile hydratase activities achieved with the saccharide as sole carbon source were set to 100%.

[2] = tested on: R. rhodochrous “J1” (FERM BP-1478); assay: Relative nitrile hydratase activity after cultivation of R. rhodochrous "J1" with different carbon sources; format: cell-based, Rhodococcus rhodochrous; conditions: 10 g/l, 64 h
Protocol: In context with the present invention, activity of an nitrile hydratase in the sense of the present invention can be determined as follows: First reacting 100 μl of a cell suspension, cell lysate, dissolved enzyme powder or any other preparation containing the supposed nitrile hydratase with 875 μl of an 50 mM potassium phosphate buffer and 25 μl of acrylonitrile at 25° C. on an eppendorf tube shaker at 1,000 rpm for 10 minutes. After 10 minutes of reaction time, samples are drawn and immediately quenched by adding the same volume of 1.4% hydrochloric acid. After mixing of the sample, cells are removed by centrifugation for 1 minute at 10,000 rpm and the amount of acrylamide formed is determined by analyzing the clear supernatant by HPLC. The concentration of acrylamide shall be between 0.25 and 1.25 mmol/l—if necessary, the sample has to be diluted accordingly and the conversion has to be repeated. The enzyme activity is deduced from the concentration of acrylamide by dividing the acrylamide concentration derived from HPLC analysis by the reaction time, which has been 10 minutes and by multiplying this value with the dilution factor between HPLC sample and original sample. […]
Different sugar/organic acid ratios were evaluated for different strains of Rhodococcus (R. rhodochrous “CIBA” (NCIMB 41164) and R. rhodochrous “J1” (FERM BP-1478)), in a microfermentation system. […]
as §1, with “Cultivation was carried out at 37° C. for 64 h at 1,100 rpm in a BioLector micro fermentation system (M2P Labs, Baesweiler, Germany) using 48-well flower plates with a working volume of 1.5 ml.” left out, “2. […]” for “2.”

[3] = Only acid as carbon source, 37° C., fructose as sole carbon source = 100%
[4] = Only acid as carbon source, 37° C., glucose as sole carbon source = 100%
[5] = Only acid as carbon source, 37° C., mannose as sole carbon source = 100%
[6] = Only acid as carbon source, 37° C., ribose as sole carbon source = 100%
[7] = Only saccharide as carbon source, set to 100%

Structure (SMILES) | relative nitrile hydratase activity [1, 3] | relative nitrile hydratase activity [1, 4] | relative nitrile hydratase activity [1, 5] | relative nitrile hydratase activity [1, 6] | relative nitrile hydratase activity [1, 7] | relative nitrile hydratase activity [2, 7] | relative nitrile hydratase activity [2, 3] | relative nitrile hydratase activity [2, 4]
O=C(O)CC(O)(CC(=O)O)C(=O)O [Citric, citric acid] | 32% | 164% | 1315% | 1409% |  |  |  | 
O=C(CO)[C@@H](O)[C@H](O)[C@H](O)CO [Fructose, fructose] |  |  |  |  | 100% | 100% |  | 
CC(O)C(=O)O (stereo not drawn) [Lactic, lactic acid] |  |  |  |  |  |  | 73% | 1963%
O=C(O)CC(O)C(=O)O (stereo not drawn) [Malic, malic acid] | 39% | 197% | 1579% | 1693% |  |  |  | 
O=C[C@H](O)[C@H](O)[C@H](O)CO [Ribose, ribose] |  |  |  |  | 100% |  |  | 
O=C(O)CCC(=O)O [Succinic, succinic acid] | 30% | 150% | 1204% | 1291% |  |  |  | 
O=C(O)C(O)C(O)C(=O)O (stereo not drawn) [Tartaric, tartaric acid] | 34% | 173% | 1388% | 1487% |  |  |  | 
